Several values for one entry are separate records, joined by “and”; a condition that tells them apart may be missing. Identical values can stand only once. Like-named read-outs stand apart in the source and are kept apart here.
What was measured:
A549 cells = conditions: pH 4
[1] = test system: streptokinase enzyme from S. pyogenes; assay: streptokinase inactivation, clot formation enzymatic assay; format: biochemical; conditions: streptokinase 175 U/mL incubated 1 hour; fibrin remained insoluble, glass bead remained at top
Protocol: Inactivation of streptokinase was determined by clot formation enzymatic assay (Sigma Aldrich, St. Louis, Mo.), whereby thrombin converts the soluble fibrinogen into […] (Crew 2013). In the presence of streptokinase enzyme from S. pyogenes, the insoluble fibrin is converted into soluble fibrin fragments. Several hours before the study, streptokinase 175 U/mL) was incubated with the irrigation solution for 1 hour, followed by inactivation of excess irrigation solution by adding an equal volume of 20 mM methionine for 1 hour at room temperature.
In a separate glass tube, fibrinogen solution containing borate buffer, gelatin diluent, and plasminogen were mixed by swirling, and then equilibrated at 37° C. for 3 minutes. Irrigation solution and methionine treated streptokinase was added to the solution, mixed by swirling, and equilibrated at 37° C. for 1 minute prior to the addition of thrombin. The solution was mixed by swirling and equilibrated at 37° C. for approximately 2-3 minutes to allow for clot formation. A 4 mm glass bead was added to the top of the reaction mixture, and the time for the glassbead to touch the bottom of the tube was observed. In this clot assay, 0.001 μg/mL of the hypochlorous acid completely inactivated streptokinase, causing the fibrin to remain insoluble in solution, and the glass bead to remain at the top of the reaction mixture.

[2] = test system: root canal microorganisms; conditions: 2.5% NaOCl, after biomechanical preparation; cited from earlier work
Aspergillus flavus = conditions: added to the fungal growth medium prior to inoculation; cited from earlier work
[3] = molecular target: alpha-hemolysin toxin of S. aureus (Staphylococcus aureus, UniProt P09616); format: cell-based
Sequence of alpha-hemolysin toxin of S. aureus (P09616 27-319 limits assumed): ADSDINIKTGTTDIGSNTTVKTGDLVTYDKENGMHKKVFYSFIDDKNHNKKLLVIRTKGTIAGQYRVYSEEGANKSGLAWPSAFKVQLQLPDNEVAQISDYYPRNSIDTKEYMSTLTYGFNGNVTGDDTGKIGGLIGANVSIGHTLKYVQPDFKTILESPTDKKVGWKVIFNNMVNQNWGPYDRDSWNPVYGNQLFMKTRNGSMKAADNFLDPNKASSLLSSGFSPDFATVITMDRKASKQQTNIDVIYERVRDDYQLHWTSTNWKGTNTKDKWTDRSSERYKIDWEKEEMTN

[4] = 2.5% NaOCl, cited from earlier work

OCl [HOCl, hypochlorous acid]
Dilution of wound exudate cytotoxic to A549 cells (A549 cells): 1:4 | concentration that completely inactivated streptokinase [1]: 0.001 µg/mL

[Na+].[O-]Cl [hypochlorite, sodium hypochlorite]
root canal microorganisms eliminated [2]: 100% | NaOCl concentration that completely inhibited the fungal growth (Aspergillus flavus): 2.8 mM | EC50 [3]: 0.95 ± 0.18 µg/mL and 0.99 ± 0.06 µg/mL | endotoxins reduced ([4]; 7 days after biomechanical preparation): 83.2% | endotoxins reduced ([4]; immediately after biomechanical preparation): 88.8%
